Experimental findings from patent US20250177398A1, “CARBONIC ANHYDRASE ENZYMES FOR REGULATING MAST CELL HEMATOPOIESIS AND TYPE 2 INFLAMMATION” (RUTGERS, THE STATE UNIVERSITY OF NEW JERSEY, priority 2015, published 2025) are described below.

SMILES strings stand for the structures.

One experiment deals with Trichinella spiralis. The experiment is described as follows: Trichinella spiralis infection of mice. It is filed as in vivo, mouse. The settings on record: T. spiralis-infected mice. On the procedure: (§1) Methods for maintenance, recovery, infection and isolation of Trichinella larvae were performed as previously described (Urban, et al., 2000. J Immunol 164:2046-2052). Mice were infected with 500 Trichinella muscle larvae by oral gavage and were treated with vehicle (1:5 DMSO to PBS) or 2-3 mg of MZ i.p. daily; mice were sacrificed between 10-11 days post-infection. At necropsy, single cell suspensions of mLNs and spleens were prepared as previously described (Giacomin, et al., 2012. Journal of immunology (Baltimore, Md.: 1950) 189:4371-4378) for basophil and mast cell analysis. Blood was collected and serum was isolated for analysis of Mcpt1 and IgE. Sections (1 cm) of small intestine (jejunum) were collected for real-time PCR and histological analysis. Remaining sections of small intestine were slit lengthwise, rinsed in PBS, and placed in HBSS for 4 hours at 37° C. and adult worms were quantified by microscopic analysis as previously described (Urban, et al., 2000. J Immunol 164:2046-2052). Rag1^−/− mice were injected (i.p.) with a combination of recombinant IL-3 (1 μg) and α-IL-3 antibody (0.5 μg) (BioLegend: clone MP2-8F8) in 200 μl PBS every 3 days for 7-10 days. IL-3C-treated mice were treated with MZ (2 mg) or vehicle (DMSO) every day.
RNA from sections of small intestine was isolated by homogenization in TRIzol (Invitrogen) followed by phenol-chloroform extraction and isopropanol precipitation. cDNA was generated per standard protocol with Superscript reverse transcriptase (Invitrogen) and used as input for real-time PCR. Real-time data were analyzed using the ΔΔCT method using SYBR Green chemistry (Applied Biosystems) with β-actin serving as the endogenous housekeeping gene. All reactions were run on an ABI 7500 Fast Real-Time PCR System (Applied Biosystems). Samples were normalized to naïve controls. The following QuantiTech primer assays from Qiagen were used: Mcpt1 (QT00157864), IL-4 (QT00160678), IL-9 (QT00107555), Arg1 (QT00134288), Retnla (QT00254359), Car1 (QT01058113) and Car2 (QT00494592).
(§2) Single cell suspensions were made from mesenteric, or skin draining lymph nodes. Lymph node cells were cultured in RPMI complete medium and treated with and without anti-CD3 (BD Pharmingen: clone 145-2C11) and anti-CD28 antibodies (BD Pharmingen: clone 37.51) for 72 hours. Standard sandwich ELISA (eBioscience) was performed to measure IL-4 (clones 11B11 and BVD6-24G2), IL-5 (clones TRFK5 and TRFK4) and IL-13 (clones eBio13A and eBio1316H) levels in the cell-free supernatants. Serum quantities of Mcpt1 and IgE were measured by commercial sandwich ELISA kits (BD Biosciences, eBioscience).

For experiment [1], the system named is bone marrow-resident progenitor cells (mast cell and basophil development). The experiment in a line: Murine mast cell and basophil developmental assay: BM progenitor cells cultured with IL-3. Type of experiment: cell-based, mouse. As to conditions: BM cells + IL-3 10 ng/mL, 30 μg/mL MZ. On the procedure: FIGS. 6A-6B. Bone marrow-resident progenitor cells were cultured in media, media treated with IL-3 (10 ng/ml), media treated with IL-3 and compound 8 (25 ng/ml) (FIG. 6A) or, media treated with IL-3 and compound 16 (25, 50, or 75 ng/ml) (FIG. 6B). On day 7 post-culture mast cells were identified by flow cytometric analysis. Results are representative of 2 independent experiments with at least 4 technical replicated per experiment. Statistical analysis was performed using a Student's t-test. (*,p<0.05) (***,p<0.001).
BM cells were isolated from the femur of WT mice and cultured in the presence of 10 ng/mL of IL-3 and vehicle (1:10 DMSO to RPMI complete media) or 30 μg/mL MZ. Fresh IL-3 with either vehicle or MZ were added daily, and mast cell and basophil populations were evaluated on day 7 post-culture.
Further, it is illustrated that genetically editing Car1 in stem cells via CRISPR/Cas9 technology decreases their capacity to develop into mature mast cells. […] However, whether inhibitors that selectively target Car1 can be used to inhibit mast cell development was unknown. […] Therefore, it was sought to be determined whether compound 8 and/or compound 16 could inhibit mast cell development from progenitor cell populations. To test this, the mast cell developmental assay was employed and bone marrow-resident progenitor cells were treated with IL-3 to promote mast cell development.

Experiment [2] concerns atopic dermatitis (AD)-like disease. The experiment is described as follows: MC903-induced atopic dermatitis-like disease. The settings on record: MC903-treated mice, 2-3 mg MZ i.p. daily. It is filed as in vivo, mouse. On the procedure: as §2
Mice were treated once a day topically with 2 nmol of MC903 (calcipotriol, Tocris Bioscience) in 20 μl of ethanol for 6 days as described previously (Kim, et al., 2013. Sci Transl Med 5: 170ra116). MC903-treated mice were treated with vehicle (1:5 DMSO to PBS) or 2-3 mg of MZ i.p. daily and sacrificed on day 7 post-treatment.

Experiment [3] has as its system IL-3C-induced intestinal mast cell responses and peripheral basophilia. The experiment in a line: IL-3C treatment of Rag1-deficient mice. The settings on record: MZ 2 mg every day (FIG. 3G). Type of experiment: in vivo, mouse. The protocol: as §1
Experiment [4] relates to human CD34+ progenitor cells (mast cell development). The experiment in a line: Human mast cell cultures from blood CD34+ progenitor cells. The settings on record: human CD34+ cells with SCF, consistent across 5 donors. It is filed as cell-based. The text has this: Blood from healthy human donors was obtained from the New York Blood Center under protocols approved by the Rutgers Institutional Review Boards (IRB). Peripheral blood cells were isolated using a Ficoll gradient. CD34^+ cells were purified using a CD34 MicroBead isolation kit according to the manufacturer's protocol (Miltenyi Biotec, 130-048-702). 25-50×10^3 CD34^+ cells were placed in methocult ([…]) supplemented with stem cell factor (SCF), IL-6 and IL-3 as described previously (Saito, et al., 2006. Nat Protoc 1:2178-2183). Mast cell populations were evaluated on day 14 post-culture.

Experiment [5] has as its system BM cells (macrophage development). The experiment is described as follows: Murine macrophage cultures: BM cells with L-cell supernatant. Type of experiment: cell-based, mouse. As to conditions: 30% L-cell supernatant, 30 μg/mL MZ, day 5 (FIG. 1G). On the procedure:
BM cells were isolated from the femur of WT mice and cultured in the presence of 30% L-cell supernatant and vehicle (1:10 DMSO to RPMI complete media) or 30 μg/mL MZ. Fresh macrophage medium with either vehicle or MZ was added daily and macrophage cell populations were evaluated on day 5 post-culture

Turning to `CC(=O)/N=c1/sc(S(N)(=O)=O)nn1C` [MZ, methazolamide], in the experiment with Trichinella spiralis (2-3 mg MZ i.p. daily (FIG. 3A-C)), the “type 2 responses (mLN cell IL-4, IL-5, IL-13; intestinal il4, il9, arg1, retnla; serum IgE)” value is “significantly reduced”. Also, the “worms recovered from the intestines (worm burden)” value in the experiment on Trichinella spiralis (2-3 mg MZ i.p. daily (FIG. 3D)) is recorded as “significantly more”. Further, the “infection-induced basophilia (splenic basophils)” value in the experiment with Trichinella spiralis (2-3 mg MZ i.p. daily (FIGS. 2F-2G)) is “no effect”. The “mast cell responses (mLN mast cells, serum Mcpt1, intestinal mcpt1 expression, intestinal mast cells by histology)” value in the experiment with Trichinella spiralis (2-3 mg MZ i.p. daily, day 10-11 (FIGS. 2A-2E)) is reported as “significantly reduced”. In experiment [1] (day 7), the basophil numbers result is recorded as “decreased”. Also, the percentages of basophils result in experiment [1] (day 7 (FIG. 1F)) is given as “significantly increased”. Further, the “mast cell populations compared to controls” value in experiment [1] (day 7 post-culture (FIG. 1E)) is given as “significantly reduced”. Further, the “type 2 cytokine production (skin-draining LN IL-4, IL-5, IL-13) vs controls” value in experiment [2] (day 7 (FIG. 3E)) is listed as “equivalent or significantly increased”. For the same compound, the “AD-like pathology vs controls” value in experiment [2] (day 7 (FIG. 3F)) is reported as “similar”. Also, in experiment [3], the IL-3C-induced basophilia entry is given as “no effect” and the “intestinal mast cell responses” value is reported as “significantly reduced”. The “percentages of mast cells” value in experiment [4] (IL-6, IL-3, day 14 (FIGS. 4L-4M)) is “significantly reduced”. Also, in experiment [4] (IL-6, IL-3, day 14 (FIGS. 4L-4N)), the “total numbers of mast cells” value is listed as “significantly reduced”. In addition, in experiment [5], the macrophage development result was “no effect”.
